Measured values as given in patent publication US7169932B2 (priority 2001, dated 2007).
Where two headings read alike, the source gives them in different places.

Tests used:
HIV-1 = test: Cytopathic Effect (CPE) Inhibition Assay (XTT dye reduction); format: cell-based
Outline: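 CEM-SS or MT-2 cells infected with HIV-1 RF or NL4–3 (moi 0.025–0.819), 2×10^4 cells/well, incubated six days with half-log compound dilutions. Viability read by XTT formazan at 450 nm; EC50 is the concentration restoring 50% of uninfected-control formazan, CC50 from uninfected treated cells, therapeutic index CC50/EC50.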

HIV-1 protease (Q7S) = target: T1, HIV-1 protease (Q7S) (Human immunodeficiency virus type 1 group M subtype B, UniProt P04585, Q495S); test: HIV-1 Protease RET Assay; format: biochemical
T1 construct: made in house
Outline: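 Ki values came from a RET assay on refolded Q7S protease (2 nM active dimer) cleaving RE(EDANS)SQNYPIVQK(DABCYL)R at 5 μM, read at ex 340/em 490 nm. Reactions ran 12 min at 37 C in 0.1M sodium acetate pH 4.8, 1M NaCl, 5 mM DTT, 10% DMSO; curves were fit with the Morrison tight-binding equation.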

[1] = Human immunodeficiency virus 1, 144 h, read-out: Ave CPE EC50 (mM)
[2] = Ave. Ki (nM), RET assay, Q7S enzyme, pH 4.8, 37 C
[3] = Ki, table of drawn compounds, unit inferred

SMILES	EC50 (HIV-1; [1]) [nM]	melting point [°C]	Ki (HIV-1 protease (Q7S); [2]) [nM]	EC50 (HIV-1; Human immunodeficiency virus 1) [nM]	Ki (HIV-1 protease (Q7S); [3]) [nM]
Cc1c(O)cccc1C(=O)N[C@@H](Cc1ccccc1)[C@H](O)C(=O)N1CSC(C)(C)[C@H]1C(=O)NCc1cccc(OC(F)(F)F)c1 [Example A25, (R)-3-((2S,3S)-2-Hydroxy-3-{[1-(3-hydroxy-2-methyl-phenyl)-methanoyl]-amino}-4-phenyl-butanoyl)-5,5-dimethyl-thiazolidine-4-carboxylic acid 3-trifluoromethoxy-benzylamide]	248	102 to 105	5.8	–	–
CC/C=C/CNC(=O)[C@H]1N(C(=O)[C@@H](O)[C@H](Cc2ccccc2)NC(=O)c2cccc(O)c2C)CSC1(C)C [Example A36, (R)-3-((2S,3S)-2-Hydroxy-3-{[1-(3-hydroxy-2-methyl-phenyl)-methanoyl]-amino}-4-phenyl-butanoyl)-5,5-dimethyl-thiazolidine-4-carboxylic acid (E)-pent-2-enylamide]	519	113 to 115	0.59	–	–
C=CCNC(=O)[C@H]1N(C(=O)[C@@H](O)[C@H](Cc2ccccc2)NC(=O)c2cccc(O)c2C)CSC1(C)C	–	173 to 175	–	–	–
Cc1ccccc1CNC(=O)[C@H]1N(C(=O)[C@@H](O)[C@H](Cc2ccccc2)NC(=O)c2cccs2)CSC1(C)C [Example B5, (R)-3-{(2S,3S)-2-Hydroxy-4-phenyl-3-[(1-thiophen-2-yl-methanoyl)-amino]-butanoyl}-5,5-dimethyl-thiazolidine-4-carboxylic acid 2-methyl-benzylamide]	508	98 to 101	1.6	–	–
Cc1c(O)cccc1C(=O)N[C@@H](Cc1ccccc1)[C@H](O)C(=O)N1CSC(C)(C)[C@H]1C(=O)NCc1ccc(N)cc1 [Example A16, (R)-3-((2S,3S)-2-Hydroxy-3-{[1-(3-hydroxy-2-methyl-phenyl)-methanoyl]-amino}-4-phenyl-butanoyl)-5,5-dimethyl-thiazolidine-4-carboxylic acid 4-amino-benzylamide]	134	107 to 109	0.63	–	–
Cc1ccccc1CNC(=O)[C@H]1N(C(=O)[C@@H](O)[C@H](Cc2ccccc2)NC(=O)[C@@H]2CCCO2)CSC1(C)C [Example B7, (R)-3-{(2S,3S)-2-Hydroxy-4-phenyl-3-[((S)-1-tetrahydro-furan-2-yl-methanoyl)-amino]-butanoyl}-5,5-dimethyl-thiazolidine-4-carboxylic acid 2-methyl-benzylamide]	680	82 to 84	1.9	–	–
Cc1ccccc1CNC(=O)[C@H]1N(C(=O)[C@@H](O)[C@H](Cc2ccccc2)NC(=O)c2ccno2)CSC1(C)C [Example B2, Isoxazole-5-carboxylic acid {(1S,2S)-1-benzyl-3-[(R)-5,5-dimethyl-4-(2-methyl-benzylcarbamoyl)-thiazolidin-3-yl]-2-hydroxy-3-oxo-propyl}-amide]	369	82 to 84	0.78	–	–
Cc1c(O)cccc1C(=O)N[C@@H](Cc1ccccc1)[C@H](O)C(=O)N1CSC(C)(C)[C@H]1C(=O)N[C@H](C)c1ccccc1 [Example A21, (R)-3-((2S,3S)-2-Hydroxy-3-{[1-(3-hydroxy-2-methyl-phenyl)-methanoyl]-amino}-4-phenyl-butanoyl)-5,5-dimethyl-thiazolidine-4-carboxylic acid ((R)-1-phenyl-ethyl)-amide]	717	114 to 115	1.9	–	–
Cc1c(O)cccc1C(=O)NC(Cc1ccccc1)C(O)C(=O)N1CSC(C)(C)C1C(=O)NCc1cccc(C(F)(F)F)c1 (stereo not shown) [Example A4, 3-(2-Hydroxy-3-{[1-(3-hydroxy-2-methyl-phenyl)-methanoyl]-amino}-4-phenyl-butanoyl)-5,5-dimethyl-thiazolidine-4-carboxylic acid 3-trifluoromethyl-benzylamide]	591	108 to 110	4.1	–	–
COc1ccccc1CNC(=O)[C@H]1N(C(=O)C(O)C(Cc2ccccc2)NC(=O)c2cccc(O)c2C)CSC1(C)C (stereo partly drawn) [Example A3, (R)-3-(2-Hydroxy-3-{[1-(3-hydroxy-2-methyl-phenyl)-methanoyl]-amino}-4-phenyl-butanoyl)-5,5-dimethyl-thiazolidine-4-carboxylic acid 2-methoxy-benzylamide]	370	123 to 125	1.7	–	–
CC/C=C\CNC(=O)[C@H]1N(C(=O)[C@@H](O)[C@H](Cc2ccccc2)NC(=O)c2cccc(O)c2C)CSC1(C)C [Example A37, (R)-3-((2S,3S)-2-Hydroxy-3-{[1-(3-hydroxy-2-methyl-phenyl)-methanoyl]-amino}-4-phenyl-butanoyl)-5,5-dimethyl-thiazolidine-4-carboxylic acid (Z)-pent-2-enylamide]	161	112 to 113	0.13	–	–
Cc1c(O)cccc1C(=O)N[C@@H](Cc1ccccc1)[C@H](O)C(=O)N1CSC(C)(C)[C@H]1C(=O)NCc1cccc(N(C)C)c1 [Example A39, (R)-3-((2S,3S)-2-Hydroxy-3-{[1-(3-hydroxy-2-methyl-phenyl)-methanoyl]-amino}-4-phenyl-butanoyl)-5,5-dimethyl-thiazolidine-4-carboxylic acid 3-dimethylamino-benzylamide]	367	105 to 106	0.27	–	–
Cc1ccccc1CNC(=O)[C@H]1N(C(=O)[C@@H](O)[C@H](Cc2ccccc2)NC(=O)c2ccon2)CSC1(C)C [Example B3, Isoxazole-3-carboxylic acid {(1S,2S)-1-benzyl-3-[(R)-5,5-dimethyl-4-(2-methyl-benzylcarbamoyl)-thiazolidin-3-yl]-2-hydroxy-3-oxo-propyl}-amide]	409	–	4	–	–
COc1ccc(C(=O)NC(Cc2ccccc2)C(O)C(=O)N2CSC(C)(C)[C@H]2C(=O)NCc2ccccc2C)c(C)c1 (stereo in doubt) [Example B29, 3-[2-Hydroxy-3-(4-methoxy-2-methyl-benzoylamino)-4-phenyl-butyryl]-5,5-dimethyl-thiazolidine-4-carboxylic acid 2-methyl-benzylamide]	1260	–	0.12	–	–
Cc1ccccc1CNC(=O)[C@H]1N(C(=O)[C@@H](O)[C@H](Cc2ccccc2)NC(=O)c2ccsc2)CSC1(C)C [Example B6, (R)-3-{(2S,3S)-2-Hydroxy-4-phenyl-3-[(1-thiophen-3-yl-methanoyl)-amino]-butanoyl}-5,5-dimethyl-thiazolidine-4-carboxylic acid 2-methyl-benzylamide]	589	98 to 100	1.6	–	–
Cc1c(O)cccc1C(=O)N[C@@H](Cc1ccccc1)[C@H](O)C(=O)N1CSC(C)(C)[C@H]1C(=O)NCc1ccc(C(F)(F)F)c(F)c1 [Example A11]	930	–	19	–	–
Cc1cc(C(=O)N[C@@H](Cc2ccccc2)[C@H](O)C(=O)N2CSC(C)(C)[C@H]2C(=O)NCc2ccc(Cl)cc2C)no1	–	–	–	4130	28
Cc1ccccc1CNC(=O)[C@H]1N(C(=O)[C@@H](O)[C@H](Cc2ccccc2)NC(=O)c2ccc(F)cc2C)CSC1(C)C [Example B37, (R)-3-((2S,3S)-3-{[1-(4-Fluoro-2-methyl-phenyl)-methanoyl]-amino}-2-hydroxy-4-phenyl-butanoyl)-5,5-dimethyl-thiazolidine-4-carboxylic acid 2-methyl-benzylamide]	736	–	0.11	–	–
Cc1ncc(C(=O)N[C@@H](Cc2ccccc2)[C@H](O)C(=O)N2CSC(C)(C)[C@H]2C(=O)NCc2ccccc2C)c(=O)[nH]1	–	–	–	≥ 10000	209
C=CCN(C)C(=O)[C@H]1N(C(=O)[C@@H](O)[C@H](Cc2ccccc2)NC(=O)c2cccc(O)c2C)CSC1(C)C [Example A23, (R)-3-((2S,3S)-2-Hydroxy-3-{[1-(3-hydroxy-2-methyl-phenyl)-methanoyl]-amino}-4-phenyl-butanoyl)-5,5-dimethyl-thiazolidine-4-carboxylic acid allyl-methyl-amide]	72	–	0.65	–	–
CCCNC(=O)[C@H]1N(C(=O)[C@@H](O)[C@H](Cc2ccccc2)NC(=O)c2ccccc2C)CSC1(C)C [Example B30, (R)-3-{(2S,3S)-2-Hydroxy-4-phenyl-3-[(1-o-tolyl-methanoyl)-amino]-butanoyl}-5,5-dimethyl-thiazolidine-4-carboxylic acid propylamide]	1230	–	1.1	–	–
C/C=C(/C)CNC(=O)[C@H]1N(C(=O)[C@@H](O)[C@H](Cc2ccccc2)NC(=O)c2cccc(O)c2C)CSC1(C)C [Example A34, (R)-3-((2S,3S)-2-Hydroxy-3-{[1-(3-hydroxy-2-methyl-phenyl)-methanoyl]-amino}-4-phenyl-butanoyl)-5,5-dimethyl-thiazolidine-4-carboxylic acid ((Z)-2-methyl-but-2-enyl)-amide]	36	–	< 0.1	–	–
